In general, half-life refers to the time needed for the level to fall by half in the phase considered. High values mean slow decline, low ones rapid decline. One may read the bioavailability as dose-corrected exposure relative to a reference, in per cent.

Data set [1] can be described thus: Pharmacokinetics in beagle dogs. Format: in vivo. The following applies: dog, plasma.
The nature of data set [2]: Metabolic stability measured in human liver microsomes. Type of data set: in vitro ADME. The procedure:
Microsome reactions were performed under either Phase I or “Phase I and II” conditions, where indicated. Compound stocks (10 mM ACN) were initially initially diluted to a concentration of 60 μM (in 60% ACN/H2O) resulting in a “working stock” stock” solution of 100×. Human liver microsomes were utilized at a final concentration of 0.6 mg/ml. Duplicate wells were used for each time point (0, 6, 10, 30, and 60 minutes). Reactions were carried out at 37° C. in a shaking water bath, and the final concentration of solvent was kept constant at 0.6%. The final volume for each reaction was 600 μl, comprised of […] of 100 mM KPO4 buffer, (pH 7.4); 12.6 μl of HLM (from a 20 mg/ml stock); 6 μl of 100×“working stock” drug compound, and 126 μl of NRS “master mix” solution. At each time point, 100 μl of reaction was removed and added to a sample well containing 100 μl of ice-cold, 100% ACN (plus internal standards), to stop the reaction. The NRS “master mix” is a solution of glucose-6-phosphate dehydrogenase, NADP^+, MgCl2, and glucose-6-phosphate, prepared per manufacturer's instructions (BD Biosciences, Waltham, Mass.). Each 6.0 ml stock of NRS “master mix” solution contains 3.8 […], 1.0 ml solution “A” (Cat. #461220), and 0.2 ml solution “B” (Cat. #461200). Human liver microsomes (lot #0610279, Xenotech Corp.) represented a pool of 60 donors. donors.
Samples were centrifuged at 3,000 rpm for 10 minutes at 4° C. to remove debris and precipitate protein. Approximately 160 μl of supernatant was subsequently transferred to a new sample block for analysis. The concentration of parent drug remaining in each well (expressed as percent remaining versus Time ‘0’, at the beginning of the reaction) was measured by LC/MS, as detailed below.
All samples were analyzed on the MDS/Sciex API4000 Q Trap system with electrospray ionization (ESI) in the positive or negative SIM mode, depending on the compounds. The mobile phases were isocratic at 30% A (0.1% formic acid in water) and 70% B (0.1% formic acid in acetonitrile) with a flow rate of 0.4 mL/min. A Phenomenex Luna Phenyl-Hexyl column (60×2.0 mm ID, 6μ) was used. The injection volume was 10 μL. The total run time per sample was 1.6 to 3.0 minutes. […] The percentage of parent drug compound remaining after each time point was determined relative to the initial measured concentration at the beginning of the reaction (T0 min).
For half-life determination, data was fitted using GraphPad Prism, v 4.03 with the non-linear regression equation “one phase exponential decay” defined as: Y=Span*exp(−K*X)+Plateau (decays to Plateau with a first-order rate constant, K). […] Intrinsic Clearance (μl/min/mg protein) is defined as: CLint=0.693*(1/T1/2)*(ml incubation/mg protein)*1000; This equation can also be expressed as (K*1000)/microsome concentration.

Some results are limits rather than exact numbers.

For `C[C@](O)(COc1ccc(Cl)c(F)c1)C(=O)Nc1ccc(C#N)c(C(F)(F)F)c1` [S-II, (S)-3-(4-chloro-3-fluorophenoxy)-N-(4-cyano-3-(trifluoromethyl)phenyl)-2-hydroxy-2-methylpropanamide], in data set [1] (oral), the clearance was 0.36 ± 0.12 mL/min/kg and the half-life is 37 ± 26.8 h. In addition, in data set [1] (oral, read-out: Vz), the Vd is 1.27 ± 0.352 L/kg. Also, the bioavailability in data set [1] (po, peroral) amounted to 72.5%. The “CLint (ul/min/mg) Phase I + II” value in data set [2] (Phase I + II) is less than 1 µL/min/mg. Also, in data set [2] (Phase I + II, 0.6 μM), the “Half Life (minutes) Phase I + II” value is listed as “Stable”. For the same compound, the “Half Life (minutes) Phase I only” value in data set [2] (Phase I only, 0.6 μM) is on record as “Stable”. Further, the microsomal CLint at 0.6 μM in data set [2] (human, human liver microsomes, pH 7.4, Phase I only, read-out: CLint (ul/min/mg) Phase I only) is less than 1 µL/min/mg.

The record behind these values is US9278914B2, “SARMs and method of use thereof” (UNIVERSITY OF TENNESSEE RESEARCH FOUNDATION, priority 2004, dated 2016).
